Patent US4801456A, “Growth hormone-releasing factor analogs” (International Minerals & Chemical Corp., priority 1987, dated 1989)
Square brackets hold non-standard residues; d marks the D form. Peptide text beside a SMILES is read from it. Nle = CCCC[C@H](N)C(=O)O

Test system: rat pituitary cells in tissue culture
Assay: Bioassay of hGRF analogs: GH release from cultured pituitary cells
Assay type: cell-based
Conditions: for Dose Needed to Release 2.01 μg/ml of GH (ED50 value for hGRF) / Maximum GH Released / Relative Maximum Activity (% of hGRF): from curves generated by ALLFIT; for GH release at dosages comparable to native hGRF: referring to Table 1; for Potency: (ED50 of hGRF)/(Dose required to give same response as ED50 of hGRF): relative to hGRF(1-44)-NH2 = 100
Text: The assay for biological activity, which is based on the ability to stimulate release of growth hormone in rat pituitary cells in tissue culture, has been described in detail (Culler, M. D.; Kenjo, T.: Obara, N.; Arimuar, A., Stimulation of cAMP. Accumulation by Human Pancreatic GH-Releasing Factor-(1-44). Am. J. Physiol. 1984, 247 (Endocrinol.Metab.10), E609-E615.
ALLFIT, the 4-parameter logistic curve fitting program available from the Biomedical Computer Technology Information Center, Vanderbilt Medical Center, Nashville TN, was used to determine ED50 and maximal stimulated values from the data. In several instances, the amount of GH released reached a maximum value and decreased with further increasing doses of the hGRF analogs. To simplify the data analysis, these values were not used in the calculations. The calculated maximal responses, the doses of the analog required to release the amount of GH released at the ED50 of the standard (hGRF) and the potencies of the analogs relative to hGRF, are given in Table 2. Generally all novel analogs were fully active and were able to stimulate the release of growth hormone with maximal values of GH release being within 80% of the value for natural hGRF.

Row | SMILES | GH Released (mean ± (S.E.)) (Dose 1 × 10^-6 M) | GH Released (mean ± (S.E.)) (Dose 1 × 10^-7 M) | GH Released (mean ± (S.E.)) (Dose 1 × 10^-8 M) | GH Released (mean ± (S.E.)) (Dose 1 × 10^-9 M) | GH Released (mean ± (S.E.)) (Dose 1 × 10^-10 M) | GH Released (mean ± (S.E.)) (Dose 1 × 10^-11 M) | Dose Needed to Release 2.01 μg/ml of GH (ED50 value for hGRF) | Maximum GH Released | Relative Maximum Activity (% of hGRF) | GH release at dosages comparable to native hGRF | Potency: (ED50 of hGRF)/(Dose required to give same response as ED50 of hGRF) | Potency: (ED50 of hGRF)/(Dose required to give same response as ED50 of hGRF) (listed as [Asn^3,Asp^8,Asn^25,Nle^27 ]-hGRF(1-31)--NH2) | Potency: (ED50 of hGRF)/(Dose required to give same response as ED50 of hGRF) (listed as [Asn^3,Asp^8,Nle^27 ]-hGRF(1-31)--NH2)
1 | CCCC[C@H](NC(=O)[C@@H](NC(=O)[C@H](CC(N)=O)NC(=O)[C@H](CCC(N)=O)NC(=O)[C@H](CC(C)C)NC(=O)[C@H](CC(C)C)NC(=O)[C@H](CCCCN)NC(=O)[C@H](CCCNC(=N)N)NC(=O)[C@H](C)NC(=O)[C@H](CO)NC(=O)[C@H](CC(C)C)NC(=O)[C@H](CCC(N)=O)NC(=O)CNC(=O)[C@H](CC(C)C)NC(=O)[C@@H](NC(=O)[C@H](CCCCN)NC(=O)[C@H](CCCNC(=N)N)NC(=O)[C@H](Cc1ccc(O)cc1)NC(=O)[C@H](CO)NC(=O)[C@H](CC(N)=O)NC(=O)[C@@H](NC(=O)[C@H](Cc1ccccc1)NC(=O)[C@@H](NC(=O)[C@H](C)NC(=O)[C@H](CC(N)=O)NC(=O)[C@H](C)NC(=O)[C@@H](N)Cc1ccc(O)cc1)[C@@H](C)CC)[C@@H](C)O)C(C)C)[C@@H](C)CC)C(=O)N[C@@H](CO)C(=O)N[C@@H](CCCNC(=N)N)C(=O)N[C@@H](CCC(N)=O)C(=O)N[C@@H](CCC(N)=O)C(N)=O [[Asn^3,Asn^25,Nle^27], [Asn^3,Asn^25,Nle^27]-hGRF(1-31)--NH2] (H-YANAIFTNSYRKVLGQLSARKLLQNI[Nle]SRQQ-NH2) | 2.96 (0.11) μg/mL | 3.30 (0.08) μg/mL | 3.21 (0.13) μg/mL | 1.58 (0.07) μg/mL | 0.81 (0.06) μg/mL | 0.65 (0.03) μg/mL | 1.54 nM | 3.33 µg/mL | 101% | induced GH release in dosages comparable to those for native hGRF | 21% |  | 
2 | CCCC[C@H](NC(=O)[C@@H](NC(=O)[C@H](CC(N)=O)NC(=O)[C@H](CCC(N)=O)NC(=O)[C@H](CC(C)C)NC(=O)[C@H](CC(C)C)NC(=O)[C@H](CCCCN)NC(=O)[C@H](CCCNC(=N)N)NC(=O)[C@H](C)NC(=O)[C@H](CO)NC(=O)[C@H](CC(C)C)NC(=O)[C@H](CCC(N)=O)NC(=O)CNC(=O)[C@H](CC(C)C)NC(=O)[C@@H](NC(=O)[C@H](CCCCN)NC(=O)[C@H](CCCNC(=N)N)NC(=O)[C@H](Cc1ccc(O)cc1)NC(=O)[C@H](CO)NC(=O)[C@H](CC(=O)O)NC(=O)[C@@H](NC(=O)[C@H](Cc1ccccc1)NC(=O)[C@@H](NC(=O)[C@H](C)NC(=O)[C@H](CC(N)=O)NC(=O)[C@H](C)NC(=O)[C@@H](N)Cc1ccc(O)cc1)[C@@H](C)CC)[C@@H](C)O)C(C)C)[C@@H](C)CC)C(=O)N[C@@H](CO)C(=O)N[C@@H](CCCNC(=N)N)C(=O)N[C@@H](CCC(N)=O)C(=O)N[C@@H](CCC(N)=O)C(N)=O [[Asn^3,Asp^8,Asn^25,Nle^27], [Asn^3,Asp^8,Asn^25,Nle^27]-hGRF(1-31)--NH2] (H-YANAIFTDSYRKVLGQLSARKLLQNI[Nle]SRQQ-NH2) | 3.12 (0.12) μg/mL | 2.94 (0.11) μg/mL | 1.88 (0.07) μg/mL | 0.75 (0.01) μg/mL | 0.61 (0.05) μg/mL | 0.60 (0.02) μg/mL | 12.05 nM | 3.11 µg/mL | 94% | did not induce GH release at dosages comparable to native hGRF | 3% | 5% | 
3 | CCCC[C@H](NC(=O)[C@@H](NC(=O)[C@H](CC(=O)O)NC(=O)[C@H](CCC(N)=O)NC(=O)[C@H](CC(C)C)NC(=O)[C@H](CC(C)C)NC(=O)[C@H](CCCCN)NC(=O)[C@H](CCCNC(=N)N)NC(=O)[C@H](C)NC(=O)[C@H](CO)NC(=O)[C@H](CC(C)C)NC(=O)[C@H](CCC(N)=O)NC(=O)CNC(=O)[C@H](CC(C)C)NC(=O)[C@@H](NC(=O)[C@H](CCCCN)NC(=O)[C@H](CCCNC(=N)N)NC(=O)[C@H](Cc1ccc(O)cc1)NC(=O)[C@H](CO)NC(=O)[C@H](CC(=O)O)NC(=O)[C@@H](NC(=O)[C@H](Cc1ccccc1)NC(=O)[C@@H](NC(=O)[C@H](C)NC(=O)[C@H](CC(N)=O)NC(=O)[C@H](C)NC(=O)[C@@H](N)Cc1ccc(O)cc1)[C@@H](C)CC)[C@@H](C)O)C(C)C)[C@@H](C)CC)C(=O)N[C@@H](CO)C(=O)N[C@@H](CCCNC(=N)N)C(=O)N[C@@H](CCC(N)=O)C(=O)N[C@@H](CCC(N)=O)C(N)=O [[Asn^3,Asp^8,Nle^27], [Asn^3,Asp^8,Nle^27]-hGRF(1-31)--NH2] (H-YANAIFTDSYRKVLGQLSARKLLQDI[Nle]SRQQ-NH2) | 2.74 (0.19) μg/mL | 3.30 (0.27) μg/mL | 2.27 (0.07) μg/mL | 1.04 (0.05) μg/mL | 0.58 (0.04) μg/mL | 0.65 (0.04) μg/mL | 6.74 nM | 3.53 µg/mL | 107% | did not induce GH release at dosages comparable to native hGRF | 5% |  | 3%
4 | CCCC[C@H](NC(=O)[C@@H](NC(=O)[C@H](CC(=O)O)NC(=O)[C@H](CCC(N)=O)NC(=O)[C@H](CC(C)C)NC(=O)[C@H](CC(C)C)NC(=O)[C@H](CCCCN)NC(=O)[C@H](CCCNC(=N)N)NC(=O)[C@H](C)NC(=O)[C@H](CO)NC(=O)[C@H](CC(C)C)NC(=O)[C@H](CCC(N)=O)NC(=O)CNC(=O)[C@H](CC(C)C)NC(=O)[C@@H](NC(=O)[C@H](CCCCN)NC(=O)[C@H](CCCNC(=N)N)NC(=O)[C@H](Cc1ccc(O)cc1)NC(=O)[C@H](CO)NC(=O)[C@H](CC(N)=O)NC(=O)[C@@H](NC(=O)[C@H](Cc1ccccc1)NC(=O)[C@@H](NC(=O)[C@H](C)NC(=O)[C@H](CC(N)=O)NC(=O)[C@H](C)NC(=O)[C@@H](N)Cc1ccc(O)cc1)[C@@H](C)CC)[C@@H](C)O)C(C)C)[C@@H](C)CC)C(=O)N[C@@H](CO)C(=O)N[C@@H](CCCNC(=N)N)C(=O)N[C@@H](CCC(N)=O)C(=O)N[C@@H](CCC(N)=O)C(N)=O [[Asn^3,Nle^27], [Asn^3, Nle^27]-hGRF(1-31)--NH2] (H-YANAIFTNSYRKVLGQLSARKLLQDI[Nle]SRQQ-NH2) | 3.22 (0.16) μg/mL | 3.05 (0.09) μg/mL | 2.90 (0.12) μg/mL | 2.40 (0.06) μg/mL | 0.97 (0.01) μg/mL | 0.67 (0.08) μg/mL | 0.58 nM | 3.09 µg/mL | 93% | induced GH release in dosages comparable to those for native hGRF | 55% |  | 
